Patent publication US20220349876A1, “USE OF DKK1 INHIBITOR IN PREVENTION AND/OR TREATMENT OF TUMOR CACHEXIA AND DISEASES ASSOCIATED WITH DIABETES” (SHANGHAI DONGTSU BIOSCIENCES CO., LTD., priority 2019, published 2022)
“Also recorded” adds a separate entry of the source.

What was measured:
[1] = tested on: CT26 tumor-bearing mice; experiment: Survival of CT26 tumor-bearing mice (Kaplan-Meier); settings: mouse, in vivo
[2] = tested on: CT26 tumor-bearing mice; experiment: Tumor cachexia in CT26 tumor-bearing mice: tumor-free body weight, muscle weight, muscle membrane proteins; format: in vivo, mouse
[3] = tested on: LRP6 and Kremen2; experiment: Intramuscular injection of Dkk1, Western blot of membrane LRP6 and Kremen2; format: in vivo, mouse; settings: simultaneous injection with Dkk1
Experimental: Wild-type mice and β-arrestin2+/−KO mice were injected into the left quadriceps (0.25 mg/kg) and an equal volume of PBS was injected into the right leg as controls. MDC (10 mg/kg), IGFBP-4/H95P (1.7 mg/kg) or PBS were injected in combination with Dkk1 as a control to observe the effects of drugs on Dkk1-induced signal transduction. After 48 hours, the mice were sacrificed, and the left and right quadriceps were taken to measure the […].
Membrane proteins were extracted according to the instructions of Membrane Protein Extraction Kit (Sangon Biotech, China). Western blot analysis omitted. Antibodies for WB analysis were purchased from Cell Signaling Technology and Proteintech.

[4] = tested on: HUVEC cells; experiment: γH2AX DNA damage response in HUVEC cells (Western blot); format: cell-based
Experimental: (2) The transfection system of a 3.5 cm petri dish was prepared as follows: 1 μl of siRNA Oligo/Red (concentration of the original solution was 20 μM) was added to an EP tube containing 250 μl of pure Opti-MEM and mixed, and 1.5 μl of RNAiMAX (transfection Reagent) was added to the flow tube containing 250 μl of pure Opti-MEM and mixed, and then all the liquid in the EP tube was added to the flow tube and mixed, and allowed to stand at room temperature for 15 min.
(3) The prepared transfection system was added to a 3.5 cm culture dish, and the cells were cultured for 24-48 h, then the samples were collected and the total cell protein was extracted, and the knockdown effect of the gene was identified by Western Blotting.
(3) Add 150 μl of total protein lysate to each cell sample to make the lysate fully contact with the cells, scrape off the cell lysate with a scraper, collect it into a pre-cooled EP tube, and take an ice bath for 15 min.
(§1) Protein electrophoresis gels are double-layered gels, including an upper stacking gel and a lower separating gel. The concentration of the stacking gel is 5%, and the concentration of the separating gel is determined according to the molecular weight of the target protein. In this study, large molecular weight proteins (LRP5/6, β-catenin, β-arrestin1/2) used 8%-5% double-layer gel, and small molecular weight proteins (γH2AX, p53, p21, Bcl-2, Bax, Cleaved Caspase-3) used 12%-5% double-layer gel. In addition, the number of wells (10 wells or 15 wells) and thickness (1 mm or 1.5 mm) of the preparation gel were selected according to the number and volume of protein samples loaded. The gel formulation is shown in the experimental material section, and the preparation steps are as follows: […]

[5] = tested on: β-arrestin1/2; experiment: β-arrestin1/2 translocation in HUVEC cells (Western blot); format: cell-based; settings: MDC pretreatment
Experimental: (5) Add 100 μl (cell) or 200 μl (tissue) A solution to each sample, and resuspend the cell pellet with a pipette to completely disperse the pellet. The tissue pellet should be fully homogenized on ice with a homogenizer, and the ice bath should be used for 15 min.
(10) Add 50 μl (cells) or 100 μl (tissue) B solution to each sample, resuspend the pellet in Vortex at the highest speed for 10 s, ice bath for 10 min, and repeat twice to fully extract membrane proteins.
as §1

[6] = tested on: STZ-induced diabetic mice; experiment: STZ-induced type 1 diabetes mouse model with insulin or MDC rescue; format: in vivo
Experimental: STZ-induced diabetes is a chemical modeling method for diabetes. Its full name is streptozotocin, which is a broad-spectrum antibiotic isolated from achromatic streptomycin. It can selectively damage islet 13 cells in a short period of time, causing 13 cell necrosis, resulting in varying degrees of blood insulin drop and blood sugar rise, resulting in insulin-dependent type 1 diabetes mellitus. […] Modelling criteria are non-fasting blood glucose values above 13.8 mM (250 mg/dl). The modeling steps are as follows: (4) According to the body weight, mice in the model group were injected intraperitoneally with 2% STZ-citric acid solution (160 mg/kg), and the mice in the control group were intraperitoneally injected with the corresponding volume of citrate buffer. 2 h after the injection, the mice were fed back. […] Specific steps are as follows: (3) According to the body weight, the insulin rescue group was subcutaneously injected with diluted insulin (1 U/kg/day), once a day at the same time for 7 consecutive days, and the control group was given a corresponding volume of normal saline. […] Body weight and random blood glucose were measured at different time points after injection. […] (1) Sample preparation: Store the freshly obtained mouse blood in an EDTA anticoagulation tube, stand at room temperature for 10 min, centrifuge at 1000 g for 15 min, and collect the supernatant, namely plasma. If it cannot be detected immediately, it should be subpackaged and stored at −80° C. to avoid repeated freezing. If precipitation occurs during storage, it should be fully thawed at room temperature before use, and centrifuged again.

[7] = tested on: Leptin−/− mice; experiment: Leptin−/− mice injected with D-glucose, MDC rescue; format: in vivo, mouse; settings: 6-week-old Leptin−/− mice, D-glucose every 2 h for 24 h
Experimental: The in vivo rescue experiment of MDC in Leptin^−/− mice was performed by pre-intraperitoneal injection of MDC in 6-week-old Leptin^−/− mice (diluted in sterile PBS, 10 mg/kg) or the corresponding volume of DMSO (diluted in sterile PBS). The injected dose of MDC in Leptin^−/− mice should be calculated based on the body weight of 6-week-old littermates of WT mice. After 1 h of MDC intervention, 50% D-glucose or the corresponding volume of PBS was injected intraperitoneally. The procedure of injecting D-glucose into Leptin^−/− mice was as follows: 12 injections were performed every 2 hours during the 24-hour period, and the injection dose of D-glucose was fixed at the first dose (2 g/kg).

[8] = tested on: wild-type mice heart; experiment: Local injection of Dkk1 protein into the heart combined with MDC or BIM-46187; format: in vivo, mouse
Experimental: In the experiment of local injection of Dkk1 purified protein into the heart combined with MDC intervention, 10-week-old wild-type male mice were selected, the left chest was depilated, and intraperitoneal injection of MDC (diluted in sterile PBS, 10 mg/kg) or the corresponding volume of DMSO (diluted in sterile PBS) and injected at the same time every day thereafter. After 1 h of MDC intervention, cardiac Dkk1 protein injection was performed. The mice were given continuous inhalation anesthesia with 1% isoflurane and oxygenated with a ventilator, and then the fourth intercostal space near the sternum was opened to expose the heart. Using a 200 μl microsyringe, Dkk1 (10 μg of Dkk1 per heart, dissolved in 30 μl PBS) or an equal volume of PBS was injected locally at three sites in the heart. Of these, two sites are on the border around the left ventricle, and one site enters the myocardium of the left ventricle. After the injection, the wound was sutured, the anesthesia was removed, and the mice were awake. After MDC was continuously intervened for 2 days, the mice were anesthetized and the materials were collected.
In addition to injecting Dkk1 protein alone into the heart, we also need to perform experiments of local injection of Dkk1 combined with BIM-46187 into mouse hearts. According to the experimental grouping, it was divided into cardiac injections of four different solutions, including PBS, Dkk1, BIM-46187, and a mixture of Dkk1 and BIM-46187. The dosage of Dkk1 per heart is 10 μg, and the dosage of BIM-46187 is 2.4 ng, diluted with 30 μl PBS and then injected into the heart. The specific operation steps are the same as above. After the injection, the wound was sutured, the anesthesia was removed, and the mice were awake. Two days after the injection, the mice were anesthetized and the materials were collected.

CN(C)c1cccc2c(S(=O)(=O)NCCCCCN)cccc12 [MDC]
death / shortened survival of tumor-bearing mice induced by Dkk1 injection [1]: prolong the shortening of survival in tumor-bearing mice caused by Dkk1; also recorded: inhibit the rapid death of tumor-bearing mice induced by Dkk1 injection | survival of tumor-bearing mice ([1]; ip): prolongs the survival of CT26 mice | loss of body weight and muscle weight [2]: reverse tumor-induced loss of tumor-free body weight and muscle atrophy; also recorded: completely prevents the loss of body weight and muscle weight | downregulation of LRP6 and Kremen2 on membrane in muscle ([2]; Western blot): reverses downregulation of LRP6 and Kremen2 on membrane | Dkk1-induced endocytosis / downregulation of membrane LRP6 and Kremen2 [3]: prevents this phenomenon | γH2AX signaling enhanced by H2O2 in the presence of Dkk1 ([4]; Dkk1 then H2O2 50 μM): significantly attenuated | H2O2-induced γH2AX activation ([4]; H2O2 50 μM, without Dkk1): does not prevent H2O2-induced γH2AX activation | γH2AX response by the substance itself ([4]; no Dkk1, no H2O2): does not elicit γH2AX responses | Dkk1-induced γH2AX activation ([4]; pretreatment with MDC or LRP6N protein): attenuated; also recorded: prevents | Dkk1-induced translocation of β-arrestin1/2 [5]: prevent the above translocation changes of β-arrestin1/2; also recorded: prevents the translocation of β-arrestin1/2 into cells | blood 8-OHdG (ELISA) ([6]; STZ diabetic mice): prevented the elevation of 8-OHdG | blood glucose concentration ([6]; STZ diabetic mice): without altering blood glucose concentrations; also recorded: do not alter blood glucose levels | body weight loss of diabetic mice ([6]; STZ diabetic mice): inhibits; also recorded: suppressed | cardiac p53, p21, Bax/Bcl-2 and Cleaved Caspase-3 ([6]; STZ diabetic mice, heart): inhibits the upregulation of p53, p21, Bax/Bcl-2 and Cleaved Caspase-3 | cardiac γH2AX ([6]; STZ diabetic mice, heart): γH2AX activation in diabetic hearts can also be inhibited | damage to myocardial structure (HE staining) ([6]; STZ diabetic mice, heart): prevented | translocation of cardiac β-arrestin1/2 in diabetic hearts ([6]; STZ diabetic mice, heart): prevented | overall LRP5/6 and nuclear or overall β-catenin expression levels ([6]; STZ diabetic mice, heart, MDC): remain unchanged | LRP5/6 on the cardiac membrane ([6]; STZ diabetic mice, heart, Western blot): STZ-induced downregulation of LRP5/6 in diabetic cardiac membranes can be inhibited | translocation of insulin receptors on the cardiac membrane or in the plasma ([6]; substance alone (FIG. 19G)): does not induce translocation of insulin receptors | down-regulation of LRP5/6 on cardiac membranes induced by glucose injection [7]: significantly reversed the down-regulation of LRP5/6 on cardiac membranes | up-regulation of molecular markers of injury induced by glucose injection [7]: significantly reversed | Dkk1-induced cardiac β-arrestin1/2 translocation ([8]; Dkk1 intracardiac injection with MDC or BIM-46187): inhibited | Dkk1-induced cardiac changes (LRP5/6, γH2AX, p53, p21) ([8]; Dkk1 intracardiac injection with MDC pretreatment or combined with BIM-46187): reversed
